Read-outs that look alike come from different tables or passages of the source. Non-standard residues stand in square brackets, D forms with d. Residues, ends and D or L forms follow the SMILES beside them. *: point of attachment. DOTA = O=C(O)CN1CCN(CC(=O)O)CCN(CC(=O)*)CCN(CC(=O)O)CC1; 1Nal = N[C@@H](Cc1cccc2ccccc12)C(=O)O; NMeNle = CCCC[C@H](NC)C(=O)O
Experiments:
[1] = molecular target: T1, CCK2R (Homo sapiens, UniProt P32239); assay: Competition assay against [125I][3-iodo-Tyr12,Leu15]gastrin-I on A431-CCK2R cells; type: binding
T1 construct: expressed in transfected cells; host or cells: A431 human epidermoid carcinoma cells (A431-CCK2R, from Dr. Luigi Aloj)
T1 sequence (P32239 1-447): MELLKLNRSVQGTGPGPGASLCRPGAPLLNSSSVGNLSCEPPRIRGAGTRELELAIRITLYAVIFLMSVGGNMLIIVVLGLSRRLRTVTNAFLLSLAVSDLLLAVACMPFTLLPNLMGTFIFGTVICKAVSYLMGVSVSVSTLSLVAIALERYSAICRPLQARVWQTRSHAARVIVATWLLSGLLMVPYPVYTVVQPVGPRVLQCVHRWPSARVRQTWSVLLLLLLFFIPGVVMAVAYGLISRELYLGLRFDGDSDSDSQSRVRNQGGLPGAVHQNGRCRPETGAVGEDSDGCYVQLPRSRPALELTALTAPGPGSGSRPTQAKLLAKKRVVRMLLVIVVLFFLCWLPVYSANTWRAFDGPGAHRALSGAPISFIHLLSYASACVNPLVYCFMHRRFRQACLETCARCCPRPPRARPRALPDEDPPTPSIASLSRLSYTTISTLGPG
Procedure: Binding experiments were performed using 96-well filter plates (MultiScreenHTS-FB, Merck Group, Darmstadt, Germany) washed with 10 mM TRIS/139 mM NaCl pH 7.4 (2 × 250 µL). For the experiment, 0.4 × 10^6 A431-CCK2R cells in 100 µL binding buffer (20 mM HEPES buffer with pH 7.4 and 10 mM MgCl2, 14 µM bacitracin, and 0.5% BSA) were added to each well. Fifty µL of [^125I][3-iodo-Tyr^12,Leu^15]gastrin-I (~25,000 cpm) and 50 µL of different dilutions of the peptide conjugates (reaching final concentrations of 0.0003–1000 nM) were added and the cells were incubated in triplicates for 1 h at room temperature. […] Incubation was interrupted by filtration of the medium and rapid rinsing with ice-cold 10 mM TRIS/139 mM NaCl pH 7.4 (2 × 200 µL). The filters were collected and counted in a γ-counter (2480 Wizard2 3”, PerkinElmer Life Sciences and Analytical Sciences, formerly Wallac Oy, Turku, Finland). Half-maximal inhibitory concentration (IC50) values were calculated following nonlinear regression with Origin software (Microcal Origin 6.1, Northampton, MA, USA).

[2] = Octanol/PBS distribution coefficient (logD7.4); type: physicochemical; details: pH 7.4
Procedure: (§1) The stability studies with the ^177Lu-labeled peptide analogs were carried out at a concentration of 0.5 nmol peptide/mL in fresh human serum (n = 2) for up to 24 h. A mixture of 0.05 nmol/mL of the radiolabeled peptides in PBS and octanol (1/1, v/v) was used to evaluate the octanol/PBS distribution coefficient (logD7.4; n = 8). To determine the protein binding in human serum by Sephadex G-50 size-exclusion chromatography (GE Healthcare Illustra, Little Chalfont, UK), a 25 µL serum sample was used for different time points after incubation. All steps were performed according to previously published protocols.

[3] = test system: human serum proteins; assay: Protein binding in human serum by Sephadex G-50 size-exclusion chromatography; type: in vitro ADME
Procedure: as §1

[4] = Biodistribution 4 h p.i. in A431-CCK2R/A431-mock xenografted BALB/c nude mice; type: in vivo; details: female, BALB/c nude, mouse, in vivo, iv, 20 pmol, total radioactivity
Procedure: (§2) Then, after 7–11 days, when visible tumor xenografts were formed, groups of 5 mice were injected intravenously via a lateral tail vein with ~0.5 MBq of radiolabeled peptide, corresponding to 20 pmol of peptide, in a total volume of ~150 µL in PBS/0.5% BSA. Using an additional mouse per group, a blocking study was performed by co-injecting a 1000-fold molar excess of the respective peptide analog (20 nmol) together with the radiolabeled peptide. For quantification, a 1:1, 1:10 and 1:50 standard was prepared using aliquots of the injection solution mixed with PBS/0.5% BSA. Mice were euthanized by cervical dislocation 4 h after injection. Subsequently, a blood sample was collected, and different tissues were dissected. All samples, as well as the rest of the body were weighed, and the activity measured in the γ-counter together with the standard. Results were expressed as percentage of injected activity per gram of tissue (%IA/g).

[5] = Biodistribution blocking experiment with 1000-fold excess of non-radiolabeled peptide; type: in vivo, mice; details: female, BALB/c nude, mouse, in vivo, iv, total radioactivity, blocking
Procedure: as §2

With `CCCC[C@@H](C(=O)N[C@@H](CC(=O)O)C(=O)N[C@@H](Cc1cccc2ccccc12)C(N)=O)N(C)C(=O)[C@H](Cc1c[nH]c2ccccc12)NC(=O)CNC(=O)[C@H](Cc1ccc(O)cc1)NC(=O)[C@H](C)NC(=O)[C@@H](CCC(=O)O)NC(=O)[C@@H](CCC(=O)O)NC(=O)[C@@H](CCC(=O)O)NC(=O)[C@@H](CCC(=O)O)NC(=O)[C@@H](CCC(=O)O)NC(=O)[C@@H](CCC(=O)O)NC(=O)CN1CCN(CC(=O)O)CCN(CC(=O)O)CCN(CC(=O)O)CC1` [Peptide 1, DOTA-(DGlu)6-Ala-Tyr-Gly-Trp-(N-Me)Nle-Asp-1Nal-NH2] ({DOTA}-[dE][dE][dE][dE][dE][dE]AYGW[NMeNle]D[1Nal]-NH2) the IC50 [1] was 0.18 ± 0.02 nM.

With `CCCC[C@@H](C(=O)N[C@@H](CC(=O)O)C(=O)N[C@@H](Cc1cccc2ccccc12)C(N)=O)N(C)C(=O)[C@H](Cc1c[nH]c2ccccc12)NC(=O)CNC(=O)[C@H](Cc1ccc(O)cc1)NC(=O)[C@H](C)NC(=O)[C@@H](CCC(=O)O)NC(=O)[C@@H](CCC(=O)O)NC(=O)[C@@H](CCC(=O)O)NC(=O)[C@@H](CCC(=O)O)NC(=O)[C@@H](CCC(=O)O)NC(=O)[C@@H](CCC(=O)O)NC(=O)CN1CCN(CC(=O)O)CCN(CC(=O)O)CCN(CC(=O)O)CC1` [[^177Lu]Lu-1, metal not drawn] ({DOTA}-[dE][dE][dE][dE][dE][dE]AYGW[NMeNle]D[1Nal]-NH2) the logD [2] was -4.18 ± 0.24, the “change in binding to human serum proteins compared to [177Lu]Lu-DOTA-MGS5” value [3] was “increased by a factor of two” and the tissue uptake at 4 h ([4]; uptake in A431-CCK2R xenografts) was 22.2 ± 6.23 %ID/g. It also gave a tissue uptake at 4 h ([4]; uptake in A431-mock xenografts) of 0.14 ± 0.04 %ID/g, a tissue uptake at 4 h ([4]; uptake in blood) of 0.02 %ID/g and a tissue uptake at 4 h ([4]; uptake in femur) of 0.21 ± 0.05 %ID/g. The tissue uptake at 4 h ([4]; uptake in heart) was 0.06 ± 0.01 %ID/g, the tissue uptake at 4 h ([4]; uptake in intestine) was 0.42 ± 0.07 %ID/g and the tissue uptake at 4 h ([4]; uptake in kidneys) was 21.6 ± 2.11 %ID/g. The tissue uptake at 4 h ([4]; uptake in liver) was 2.48 ± 0.39 %ID/g, the tissue uptake at 4 h ([4]; uptake in lung) was 0.12 ± 0.04 %ID/g and the tissue uptake at 4 h ([4]; uptake in muscle) was 0.04 ± 0.02 %ID/g. For the same molecule, the tissue uptake at 4 h ([4]; uptake in pancreas) was 1.25 ± 0.27 %ID/g, the tissue uptake at 4 h ([4]; uptake in spleen) was 1.86 ± 0.62 %ID/g and the tissue uptake at 4 h ([4]; uptake in stomach) was 4.77 ± 1.1 %ID/g. For the same molecule, the tissue uptake at 4 h ([5]; uptake in A431-CCK2R xenograft) was 0.45 %ID/g, the tissue uptake at 4 h ([5]; uptake in A431-mock xenograft) was 0.12 %ID/g and the tissue uptake at 4 h ([5]; uptake in blood) was 0.03 %ID/g. It also gave a tissue uptake at 4 h ([5]; uptake in femur) of 0.18 %ID/g, a tissue uptake at 4 h ([5]; uptake in heart) of 0.05 %ID/g and a tissue uptake at 4 h ([5]; uptake in lung) of 0.06 %ID/g. For the same molecule, the tissue uptake at 4 h ([5]; uptake in pancreas) was 0.05 %ID/g and the tissue uptake at 4 h ([5]; uptake in stomach) was 0.06 %ID/g.

Work on `CCCC[C@@H](C(=O)N[C@@H](CC(=O)O)C(=O)N[C@@H](Cc1cccc2ccccc12)C(N)=O)N(C)C(=O)[C@H](Cc1c[nH]c2ccccc12)NC(=O)CCNC(=O)CC(O)CNC(=O)CC(O)CNC(=O)CN1CCN(CC(=O)O)CCN(CC(=O)O)CCN(CC(=O)O)CC1` (stereo partly drawn) [Peptide 2, DOTA-(GABOB)2-βAla-Trp-(N-Me)Nle-Asp-1Nal-NH2] yielded an IC50 ([1]; A431-CCK2R cells, 1 h room temperature, n = 3, read-out: IC50) of 0.24 nM.

From PMC10058949, “Effect of N-Terminal Peptide Modifications on In Vitro and In Vivo Properties of ^177Lu-Labeled Peptide Analogs Targeting CCK2R” (Pharmaceutics, 2023)
